Among the data in the pKa sets of Baltruschat and Czodrowski (2020) are pKa values, retold here.

On to `CC1CCCNC1` (configuration not stated), for which, where the note is “basic group”, the pKa turned out to be 10.9.

On to `NCCCCCc1ccccc1`, for which the pKa (basic group) came to 10.5.

As for `c1c[nH]c(P(c2ncc[nH]2)c2[nH]cc[nH+]2)n1`, the pKa (basic group) turned out to be 6.59.

Regarding `O=C1CC(Sc2ccc([N+](=O)[O-])cc2)N1` (configuration not stated), the pKa (acidic group) amounted to 13.

`O=C1CCc2ccc([N+](=O)[O-])cc2C1` came in with a pKa (acidic group) of 11.8.

Under “acidic group”, `CCC(Oc1ccccc1C)C(=O)O` (configuration not stated) showed a pKa of 3.43.

`NCCCc1cccnc1` gave a pKa (basic group) of 10.1.

Regarding `O=C(O)C1CCCC[NH2+]1` (configuration not stated), the pKa (acidic group) is 2.5.

`COc1ccc(N(C)CO)cc1` came in with a pKa (basic group) of 4.59.

`Cc1nn(-c2ccccc2)cc1C(=O)O` returned a pKa (acidic group) of 4.58.

As for `CS(=O)c1ccc(O)cc1` (configuration not stated), the pKa (acidic group) was 8.28.

Compound `COP(=O)(O)NS(C)(=O)=O` registered a pKa (acidic group) of 1.16.

`c1cc2[nH]cnc2cn1`: the pKa is 10.9 (acidic group) and 6.1 (basic group).

Turning to `C[NH+](C)c1ccc(N)cc1`, the pKa (basic group) is 3.73.

For the setting “basic group”, `CCCCNCC/C(N)=N/O` registered a pKa of 9.6.

Turning to `O=S1(=O)Cc2cc(Br)ccc2N=CN1`, the pKa (acidic group) is 9.3.

The compound `O=C1N[C@@H](Cc2cnc[nH]2)C(=O)N[C@H]1Cc1cnc[nH]1` returned a pKa (basic group) of 6.54.

Turning to `CCCCCCCCCCN(CC(O)CC)CC(O)CC` (configuration not stated), where the note is “basic group”, the pKa is 6.6.

Regarding `COc1ccc(O)c(N)c1`, under “acidic group”, the pKa turned out to be 10.

Compound `Cn1c2ccccc2c(=N)c2ccccc21` showed a pKa (basic group) of 11.

For the setting “basic group”, `COc1ccccc1/C(=N/CCC[NH+](C)C)c1ccccc1` yielded a pKa of 4.62.

Take `N#Cc1ccc(C(=O)S)cc1`: the pKa (acidic group) is 1.42.

Consider `CCN(CC)CCSC`, for which the pKa (basic group) was 9.62.

For `Cc1ccc(/N=N/c2ccc(N(C)C)cc2)cc1C`, the pKa (basic group) turned out to be 2.37.

Regarding `[O-]c1cc2nc(c1)COCCOCCSCCOCCOC2`, for the setting “basic group”, the pKa was determined as 10.1.

On to `Cc1cc([O-])n(C2CCN(C)CC2)n1`, for which the pKa (basic group) stood at 9.

In the case of `O=C1C=CN2C[C@@H]3C[C@@H](CN4CCCC[C@H]34)[C@@H]2C1`, the pKa (basic group) was 9.25.

Consider `Cc1ccc(C(=O)O)o1`, for which the pKa (acidic group) was 3.42.

In the case of `CC(=O)Nc1ccc(S(=O)(=O)Nc2nccc(C)n2)cc1`, the pKa by setting is: (acidic group) 5.46; (basic group) 0.9.

On to `Cc1cc(-c2ccccc2)nn(C)/c1=N/CCN1CCOCC1`, for which the pKa (basic group) came out at 10.4.

For the compound `Oc1ccc2nccnc2c1`, the pKa runs as follows: (acidic group) 7.92; (basic group) 1.4.

On to `S=CNc1ccc(Cl)cc1`, for which the pKa (acidic group) turned out to be 10.8.

In the case of `Sc1cccnc1`, the pKa was determined as 7.01 (acidic group) and 2.28 (basic group).

As for `CC(C)(C)N(O)C(=O)c1ccccc1`, under “acidic group”, the pKa amounted to 10.1.

As for `[NH3+]CC(=O)N[C@@H](Cc1c[nH]cn1)C(=O)[O-]`, the pKa (basic group) turned out to be 6.77.

Regarding `CC(=O)CCCCN(C)C`, the pKa (basic group) turned out to be 9.66.

In turn, `O=C1c2ncnc([O-])c2C(=O)c2nc[nH]c21` yielded a pKa (basic group) of 5.99.

On to `CN1CC[C@@]23c4c5ccc(O)c4O[C@]2(C)C(=O)CC[C@@H]3[C@@H]1C5`, for which the pKa (basic group) came to 8.08.

For the compound `O=Cc1ccc(O)c(O)c1`, the pKa (acidic group) is 7.45.

Regarding `Cc1csc(NS(=O)(=O)c2ccc(N)cc2)n1`, the pKa (acidic group) was found to be 7.12.

On to `C=C[C@]1(O)CN2CC[C@H]1C[C@@H]2[C@@H](O)c1ccnc2ccc(OC)cc12`, for which the pKa (basic group) is 7.24.

Take `CCN(CC)CC(O)C[NH+](CC)CC`: the pKa (basic group) came out at 7.74.

In turn, `CC[NH+](CC)Cc1cc([N+](=O)[O-])ccc1O` showed a pKa (acidic group) of 5.75.

As to `CC(C)NCC[NH2+]C(C)C`, the pKa (basic group) is 7.59.

Turning to `CC(C)NC(=S)S`, the pKa (acidic group) came to 3.1.

Regarding `CCc1cc(CC)c(OC)c(C(=O)NC[C@H]2CCC[NH+]2CC)c1O`, for the setting “acidic group”, the pKa was 7.24.

The compound `CC(C)(C)OO` returned a pKa (acidic group) of 12.8.

On to `O=C(NO)c1cccc([N+](=O)[O-])c1`, for which, for the setting “acidic group”, the pKa is 8.07.

Turning to `C[NH+](C)CC(=O)O`, the pKa (acidic group) came out at 1.99.

`Nc1ccc(Cl)cn1` gave a pKa (basic group) of 4.83.

Turning to `OC[C@@H]1O[C@H](n2ccc3c2ncn2ccnc32)[C@@H](O)[C@H]1O`, the pKa (basic group) came out at 5.49.

Under “acidic group”, `CCCCCCCCCCCNCc1ccc(C)cc1` returned a pKa of 9.46.

On to `c1cc2c(cn1)CCCC2`, for which the pKa (basic group) came to 6.65.

Where the note is “acidic group”, `C[NH+](C)CCc1ccc(O)cc1` showed a pKa of 9.46.

Take `c1ccc(-c2ccc3nccn3n2)cc1`: the pKa (basic group) came to 4.71.

Compound `OCNc1nc(NCO)nc(NCO)n1` gave a pKa (basic group) of 4.05.

`CCCCOC(=O)c1ccc(N)cc1` yielded a pKa (basic group) of 2.47.

In the case of `Cc1nnc(NS(=O)(=O)c2ccc(N)cc2)s1`, the pKa reads like this: (acidic group) 5.46; (basic group) 2.19.

The compound `NCCC#CC#CCCC(=O)[O-]` registered a pKa (basic group) of 9.27.

With `CC(N)C/C(N)=N/O` (configuration not stated), the pKa (basic group) amounted to 9.15.

In turn, `CC(=O)/C(CN1CCCCC1)=N\[O-]` came in with a pKa (basic group) of 10.7.

As for `c1cc(C2CCCN2)nc(C2CCCN2)c1` (configuration not stated), under “basic group”, the pKa amounted to 10.1.

In turn, `CC(C)c1cccc(=O)c(O)c1Br` returned a pKa (acidic group) of 6.68.

Regarding `Cc1cccc2ccc(O)cc12`, the pKa (acidic group) is 9.42.

`O=C([O-])CN1CCCCC1` gave a pKa (basic group) of 10.3.

In turn, `CS(=O)(=O)Nc1ccc(CC([NH3+])C(=O)O)cc1` (configuration not stated) returned a pKa (acidic group) of 3.15.

As to `Nc1ccncc1F`, the pKa (basic group) worked out at 4.77.
